In publication PMC9013261 (Bioorganic Chemistry, 2021) one finds MIC and IC50 data, which are given here for 3 compounds.

pIC50: −log10 of the molar value. In brackets after ≈: the same amount, converted by molar mass.

Test [1] relates to Pseudomonas aeruginosa PAO1 (chloramphenicol-resistant). Put plainly: Broth microdilution antibacterial assay. It counts as cell-based. The conditions noted are these: PAO1, read-out: MIC P. aeruginosa PAO1. (Dilution methods test growth across graded concentrations, often in twofold steps.)
Test [2] has as its target 3CLpro of SARS-CoV-2 (Severe acute respiratory syndrome coronavirus 2, UniProt P0DTD1). In words: biochemical.
In test [3] the test system is Klebsiella pneumoniae ATCC 10031. In words: Broth microdilution antibacterial assay. The test is classed as cell-based. The conditions noted are these: ATCC10031, read-out: MIC K. pneumonia ATCC 10031.
The subject of test [4] is Bacillus subtilis 168. Put plainly: Broth microdilution antibacterial assay. It counts as cell-based. The conditions noted are these: Bacillus subtilis, 168, read-out: MIC B. subtilis 168.
Test [5] relates to Staphylococcus epidermidis ATCC 35984 (methicillin-resistant). Put plainly: Broth microdilution antibacterial assay. The test is classed as cell-based. The conditions noted are these: ATCC35984, read-out: MIC S. epidermidis ATCC 35984.

With `CCCCCCCCCCCc1cc(O)cc(O)c1` [Compound 3, 5-undecyl-1,3-benzenediol], the MIC in test [1] was greater than 64 mg/L; in test [3], 8 mg/L (≈ 30.3 µM); in test [4] it was 1 mg/L (≈ 3.78 µM); in test [5], 2 mg/L (≈ 7.56 µM). The same compound showed a pIC50 in test [2] of less than 4.00.
On to `CCCCCCCCCCCCCCc1cc(O)cc(O)c1` [Compound 5, 5-tetradecyl-1,3-benzenediol], for which the MIC in test [1], in test [3], in test [4] and in test [5] was greater than 64 mg/L throughout. This compound also had a pIC50 in test [2] of less than 4.00.
In the case of `CCCCCCCC/C=C\CCCc1cc(O)cc(O)c1` [Compound 7, (Z)-5-(trideca-4-enyl)resorcinol], the MIC is greater than 64 mg/L in test [1], greater than 64 mg/L in test [3], 1 mg/L (≈ 3.44 µM) in test [4] and 4 mg/L (≈ 13.8 µM) in test [5]. Also, the pIC50 in test [2] is less than 4.00.

As a reminder, the MIC is the lowest concentration found to suppress growth. What is called pIC50 is −log10 of the IC50, conventionally taken in molar units. Lower therefore signals a high IC50.
